Experimental data as given in patent US7338976B1, “Heterocyclic esters or amides for vision and memory disorders” (GPI NIL Holdings, Inc., priority 1998, dated 2008).

How the values were obtained:
RT97 + RGC axons = test: Protection of retinal ganglion cell axons from degeneration following optic nerve transection (Table VIII); assay type: in vivo; details: ± SEM
Text: Efficacy of representative compounds from different immunophilin ligand series in protecting retinal ganglion cell axons from degeneration following optic nerve transection is set forth in Table VIII

[1] = tested on: retinal ganglion cells, optic nerve axons and myelin; test: Retinal ischemia (intraocular pressure raised above arterial pressure), examined 28 days later; assay type: in vivo, adult rats
Text: Retinal ganglion cells were retrogradely labeled in adult rats by bilateral injection of fluorogold in their lateral geniculate nuclei. Labeled ganglion cells in the normal rat retina appear as white profiles against the dark background (FIG. 1A). Complete retinal ischemia was produced by infusing normal saline solution into the retinal vitreous cavity of each eye until the intraocular pressure exceeded arterial blood pressure. 28 days after the ischemic episode extensive degeneration of retinal ganglion cell was evidenced by massive reduction in the density of fluorogold labeled cells (FIG. 1B).
Optic nerves from vehicle treated cases examined 28 days after a 1 hour retinal ischemic episode are characterized by a decreased density of optic nerve axons and the appearance of numerous degenerating myelin figures (bright white filled circles).

[2] = tested on: retinal ganglion cells and optic nerve axons; test: Optic nerve transection vision loss model, 14 or 28 day treatment, sacrifice 90 days after transection; assay type: in vivo, Sprague Dawley rats; details: 28 days treatment; 90 days after ONT; cross sectional area × myelin density
Text: All eyes and optic nerves stumps were removed.

[3] = tested on: retinal ganglion cells and their axons; test: Example 15: optic nerve transection, 28 days GPI-1046, sacrifice at 90 days; assay type: in vivo, Sprague Dawley rats; details: 10 mg/kg/day s.c. for 28 days; 90 days after transection; RT97
Text: Transection of the mammalian optic nerve results in a brief period of abortive regeneration, but the majority of axotomized neurons die and the axons from many persisting ganglion cells die back beyond the optic nerve head.

[4] = tested on: retina (INL, GCL, ONL, OPL, PR); test: Streptozotocin induced diabetes: retinal neovascularization and neuron loss; assay type: in vivo; details: 28 day treatment beginning 8 weeks after onset of streptozotocin diabetes
[5] = Clearance (Table VIII comments); assay type: in vitro ADME

O=C(SCCCc1ccccc1)[C@@H]1CCCN1C(=O)NC12CC3CC(CC(C3)C1)C2 [B]
RT97 +RGC axon density 14 days after ON transection (% ON axons rescued) (RT97 + RGC axons): 100.0%±5.2% SEM

O=C(SCCCc1ccccc1)[C@@H]1CCCN1S(=O)(=O)Cc1ccccc1 [C]
RT97 +RGC axon density 14 days after ON transection (% ON axons rescued) (RT97 + RGC axons): 60.4%±3.1% SEM

CCC(C)(C)C(=O)C(=O)N1CCC[C@H]1C(=O)OCCCc1cccnc1 [GPI 1046, 3-(3-pyridyl)-1-propyl (2s)-1-(3,3-dimethyl-1,2-dioxopentyl)-2-pyrrolidinecarboxylate]
RT97 +RGC axon density 14 days after ON transection (% ON axons rescued) (RT97 + RGC axons): 60.5%±3.9 SEM | protection of retinal ganglion cells after retinal ischemia ([1]; 10 mg/kg s.c. 1 hour prior and 10 mg/kg/day for next four days, 28 days after ischemia, fluorogold labeled cells): noticeable protection of a large proportion of the vulnerable ganglion cell population | protection of optic nerve axons after retinal ischemia ([1]; same cases, toluidine blue staining, 28 days after 1 hour ischemia): protected the majority of optic nerve exons from degeneration | Distal optic nerve myelin basic protein Density: myelin preservation [2]: ~99 % myelin preservation | preservation of axons in the proximal stump [3]: preserved the axons of virtually all protected neurons | neovascularization in PR, ONL, OPL and INL [4]: reduced neovascularization

CCC(C)(C)C(=O)C(=O)N1CCCC[C@H]1C(=O)O [G]
RT97 +RGC axon density 14 days after ON transection (% ON axons rescued) (RT97 + RGC axons): 34.0%±4.8% SEM

CCC(C)(C)C(=O)C(=O)N1CCCC[C@H]1C(N)=O [H]
RT97 +RGC axon density 14 days after ON transection (% ON axons rescued) (RT97 + RGC axons): 30.3%±8.0% SEM

O=C(OCCCc1cccnc1)[C@@H]1CCCN1C(=S)NC1CCCCC1 [I]
RT97 +RGC axon density 14 days after ON transection (% ON axons rescued) (RT97 + RGC axons): 23.8%±5.3 SEM

CCC(C)(C)C(=O)C(=O)N1CCC[C@H]1C(=O)CCCCc1cccnc1 [J]
RT97 +RGC axon density 14 days after ON transection (% ON axons rescued) (RT97 + RGC axons): 15.8%±4.8% SEM

CCC(C)(C)C(=O)C(=O)N1CCC[C@H]1C(=O)O [L]
RT97 +RGC axon density 14 days after ON transection (% ON axons rescued) (RT97 + RGC axons): 7.8%±3.0% SEM | Clearance [5]: 12.5 µL/min

CCC(C)(C)C(=O)C(=O)N1CCC[C@H]1C(=O)SCCC(c1ccccc1)c1ccccc1 [M]
RT97 +RGC axon density 14 days after ON transection (% ON axons rescued) (RT97 + RGC axons): −6.3%+3.9% SEM
